Results from US9469665B2, “Compound having lysophosphatidylserine receptor function modulation activity” (THE UNIVERSITY OF TOKYO, priority 2013, dated 2016).

What was measured:
Type in all cases: cell-based
mouse GPR34 = target: T1, mouse GPR34 (Mus musculus, UniProt Q9R1K6); assay: TGFα shedding assay, agonistic activity on GPR34; design: key to GPR34/LPS2 agonistic activity, TGFα shedding assay: an activity that is 100 folds that of control compound 1 as +++++; an activity that is 10 folds that of control compound 1 as ++++; the activity of the control compound 1 (LPS18:1) as +++; an activity that is 1/10 as ++; an activity that is 1/100 as +; an activity below that as −; settings: HEK293 cells transfected with mouse GPR34 and AP labeled TGFα; activity relative to control compound 1 (LPS18:1) = +++
T1 construct: expressed in transfected cells; host or cells: HEK293
Method: (§1) [Test Example 1]Assay of Agonistic Activity by TGFα Shedding Assay
(§2) HEK293 cells were suspended in the Dulbecco's modified Eagle's medium (DMEM) containing 10% fetal bovine serum (FCS) to exist in an amount of 2.0×10^5 cells/mL, and they were seeded in 60 mm dishes at 4 mL per dish. Transfection of different expression vectors was performed using LipofectAMINE 2000 (Invitrogen) after 24 hours of culture under the presence of 5% CO2. For each 60 mm dish, 1 μg of AP labeled TGFα plasmid vectors were used, and 1 μg of pCAGGS plasmid vectors of mouse GPR34, P2Y10 or GPR174 were used. The plasmid vectors were prepared by methods disclosed in Patent Documents 2 and 5. Note that the AP labeled TGFα is a protein comprising a membrane-bound pro-TGFα whose N terminal end is fused with human placental alkaline phosphatase, and the plasmid vector of the AP labeled TGFα may be produced based on the teaching of Tokumaru et al., J Cell Biol 151, 209-220 (2000). After 24 hours of transfection, the cells were peeled off using trypsin/EDTA, and they were re-suspended in a culture medium to form an amount of 2.0×10^4 cells/well to be seeded to a 96-well plate. Hanks' Balanced Salt Solution (HBSS, containing 5 mM HEPES) was used for the re-suspended solution when stimulating with the compound. After it was left still for 30 min., subject compounds of various concentrations were added and the solutions were left still for another 1 hour under the presence of 5% CO2. The 96-well plate was subjected to centrifugation (190×g, 3 min.), then 80 μl of supernatant was transferred to a different 96-well plate. A reaction buffer (40 mM Tris-HCl (pH 9.5)) containing 10 mM p-nitrophenyl phosphate (p-NPP) was added in an amount of 80 μL to the supernatant and cells. The OD405 was measured with a micro plate reader (background), then after heating at 37° C. for an hour, OD405 was re-measured. The AP activity for each well was obtained by subtracting the background from the second absorbance and plugging the difference into the following formula.
(§3) In addition, the value obtained by subtracting the AP activity (%) of the non-stimulated group was used in the vertical axis to create a graph. The graphs of the test results for Example 3 (lysoPS sn-1-deoxy sn3 C3-ph-o-OBn-m-Oph) and Example 31 (lysoPS sn-1-OMe sn3 C3-ph-o-OBn-m-Oph) are shown in FIG. 1.
(§4) The obtained activity is shown by plotting the compound concentration and AP activity (%), then representing the activity of the control compound 1 (LPS18:1) as +++, an activity that is 10 folds that of control compound 1 as ++++, an activity that is 100 folds that of control compound 1 as +++++, an activity that is 1/10 as ++, and an activity that is 1/100 as +, and an activity below that as −.

mouse P2Y10 = target: T2, mouse P2Y10 (Mus musculus, UniProt Q8BFU7); assay: TGFα shedding assay, agonistic activity on P2Y10; design: key: an activity that is 100 folds that of control compound 1 as +++++; an activity that is 10 folds that of control compound 1 as ++++; the activity of the control compound 1 (LPS18:1) as +++; an activity that is 1/10 as ++; an activity that is 1/100 as +; an activity below that as −; settings: HEK293 cells transfected with mouse P2Y10 and AP labeled TGFα; activity relative to control compound 1 (LPS18:1) = +++
T2 construct: expressed in transfected cells; host or cells: HEK293
Method: as §1, §2, §3, §4

mouse GPR174 = target: T3, mouse GPR174 (Mus musculus, UniProt Q3U507); assay: TGFα shedding assay, agonistic activity on GPR174; design: key: an activity that is 100 folds that of control compound 1 as +++++; an activity that is 10 folds that of control compound 1 as ++++; the activity of the control compound 1 (LPS18:1) as +++; an activity that is 1/10 as ++; an activity that is 1/100 as +; an activity below that as −; settings: HEK293 cells transfected with mouse GPR174 and AP labeled TGFα; activity relative to control compound 1 (LPS18:1) = +++
T3 construct: expressed in transfected cells; host or cells: HEK293
Method: as §1, §2, §3, §4

T2 sequence (Q8BFU7 whole entry): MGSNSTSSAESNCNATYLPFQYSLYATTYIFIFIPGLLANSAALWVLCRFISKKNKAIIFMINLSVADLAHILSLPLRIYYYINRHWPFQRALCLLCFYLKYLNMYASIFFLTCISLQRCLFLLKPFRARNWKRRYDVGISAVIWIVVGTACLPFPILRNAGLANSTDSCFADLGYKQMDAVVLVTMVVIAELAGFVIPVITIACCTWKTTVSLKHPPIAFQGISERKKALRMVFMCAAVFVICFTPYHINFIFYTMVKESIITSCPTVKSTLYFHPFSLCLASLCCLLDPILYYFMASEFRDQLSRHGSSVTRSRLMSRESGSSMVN
T1 sequence (Q9R1K6 whole entry): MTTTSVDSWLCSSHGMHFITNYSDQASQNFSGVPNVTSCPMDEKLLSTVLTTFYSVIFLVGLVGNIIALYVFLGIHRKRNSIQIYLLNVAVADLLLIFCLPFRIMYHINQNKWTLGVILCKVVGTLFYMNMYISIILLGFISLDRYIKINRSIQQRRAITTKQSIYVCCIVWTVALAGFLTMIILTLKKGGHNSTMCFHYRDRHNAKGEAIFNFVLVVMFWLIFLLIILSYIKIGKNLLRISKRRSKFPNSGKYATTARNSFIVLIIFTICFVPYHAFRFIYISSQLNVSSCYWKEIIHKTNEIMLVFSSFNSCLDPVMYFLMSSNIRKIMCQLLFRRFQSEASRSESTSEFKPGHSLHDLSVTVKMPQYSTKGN
T3 sequence (Q3U507 whole entry): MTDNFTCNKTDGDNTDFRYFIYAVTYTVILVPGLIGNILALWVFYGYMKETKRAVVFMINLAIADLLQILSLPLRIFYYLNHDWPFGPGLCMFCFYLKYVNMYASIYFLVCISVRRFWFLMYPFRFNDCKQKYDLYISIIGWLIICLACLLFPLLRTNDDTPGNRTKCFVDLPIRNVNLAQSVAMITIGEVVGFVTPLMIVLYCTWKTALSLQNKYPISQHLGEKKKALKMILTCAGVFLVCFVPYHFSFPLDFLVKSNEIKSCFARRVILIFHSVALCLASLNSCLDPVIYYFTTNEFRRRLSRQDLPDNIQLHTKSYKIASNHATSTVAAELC

Structure (SMILES) | GPR34/LPS2 agonistic activity, TGFα shedding assay (mouse GPR34) | P2Y10/LPS2 agonistic activity, TGFα shedding assay (mouse P2Y10) | GPR174/LPS3 agonistic activity, TGFα shedding assay (mouse GPR174)
CCCCCCCC/C=C\CCCCCCCC(=O)OC[C@H]1OCCC[C@H]1OP(=O)(O)OC[C@H](N)C(=O)O [Example 15, (9Z)-Octadeca-9-enoic acid (2R,3R)-3-[((2S)-2-amino-2-carboxy-ethoxy)-hydroxy-phosphoryloxy]-tetrahydropyran-2-ylmethyl ester] | ++ | − | −
N[C@@H](COP(=O)(O)O[C@@H]1CCCO[C@@H]1COC(=O)CCc1ccccc1OCc1cccc(Oc2ccccc2)c1)C(=O)O [Example 17] | ++++ | − | −
N[C@@H](COP(=O)(O)OC[C@H]1OCCC[C@H]1OC(=O)CCc1ccccc1OCc1cccc(Oc2ccccc2)c1)C(=O)O [Example 18] | ++++~+++++ | − | −
CCCCCCCCCCCOc1ccccc1CCC(=O)OC[C@H]1OCC=C[C@@H]1OP(=O)(O)OC[C@H](N)C(=O)O [Example 19, (2S)-2-amino-3-(hydroxyl-{(2R,3S)-2-[3-(2-undecyloxy-phenyl)-propionyloxymethyl]-3,6-dihydro-2H-pyran-3-yloxy}-phosphoryloxy)-propionic acid] | − | ++ | −
CCCCCCCC/C=C\CCCCCCCC(=O)OC[C@H]1OCCC[C@@H]1OP(=O)(O)OC[C@H](N)C(=O)O [Example 20, (9Z)-Octadeca-9-enoic acid (2R,3S)-3-[((2S)-2-amino-2-carboxy-ethoxy)-hydroxy-phosphoryloxy]-tetrahydro-pyran-2-ylmethyl ester] | +++~++++ | + | −
CCCCCCCCCCCOc1ccccc1CCC(=O)OC[C@H]1OCCC[C@@H]1OP(=O)(O)OC[C@H](N)C(=O)O [Example 21, (2S)-2-amino-3-(hydroxyl-{(2R,3S)-2-[3-(2-undecyloxy-phenyl)-propionyloxymethyl]-tetrahydro-pyran-3-yloxy}-phosphoryloxy)-propionic acid] | −~++ | ++ | −
N[C@@H](COP(=O)(O)O[C@H]1CCCO[C@@H]1COC(=O)CCc1ccccc1OCc1cccc(Oc2ccccc2)c1)C(=O)O [Example 22, (2S)-2-amino-3-[hydroxyl-((2R,3S)-2-{3-[2-(3-phenoxy-benzyloxy)-phenyl]-propionyloxymethyl}-tetrahydropyran-3-yloxy)-phosphoryloxy]-propionic acid] | +++ | − | −
CCCCCCCC/C=C\CCCCCCCC(=O)OC[C@H]1OCC=C[C@@H]1OP(=O)(O)OC[C@H](N)C(=O)O [Example 23, (9Z)-Octadeca-9-enoic acid (2R,3S)-3-[((2S)-2-amino-2-carboxy-ethoxy)-hydroxy-phosphoryloxy]-3,6-dihydro-2H-pyran-2-ylmethyl ester] | ++ | ++ | −
